Measurements as given in the supplement of paper PMC11208160.

Test: recombinant barcode read abundance after kanamycin selection (control-corrected) (log10(CPM+1)); higher = more efficient recombination; sequences stand for … in AGTGCAGAGAAAATCGGCCAGTTTTCTCTGCCTGCAGTCCGCATGCCGT…AGATTTATGCAGCGGACTGCCTTTCTCCCAAAGTGATAAACCGGACAGTATCATGGACCGGTTTTCCCGGTAATCCGTATTTGCAAGGTTGGTTTCACT; site = the 11-nt target
Summary of the method: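 Pooled oligos, each joining a target to an IS621 bridge RNA target-binding loop, were cloned and co-electroporated with a donor plasmid into E. coli. Selective plates carried chloramphenicol/ampicillin/kanamycin and 0.1 mM IPTG, while chloramphenicol/ampicillin LB agar served as control, with two replicates of each. Recombination efficiency rests on averaged, control-corrected counts per million of barcodes at recombinant junctions, shown as log10(CPM+1).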
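Note: IS621 recombinase and bridge RNA in Escherichia coli cells.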

| Sequence | recombinant barcode read abundance (log10) |
| --- | --- |
| CTACGTCCTTGGGTTCTAACCTGTTGCTG (site CTACGTCCTAA) | 0.0384 |
| CTACGTCCTTGGGTTCTAACCTGTTGCTG (site CTACGTCCTCA) | 1.64 |
| CTACGTCCTTGGGTTCTAACCTGTTGCTG (site CTACGTCCTGA) | 0.203 |
| CTACGTCCTTGGGTTCTAACCTGTTGCTG (site CTACGTCCTTA) | 0.0883 |
| CTACGTCCTTGGGTTCTAACCTGTTGCTT (site CTACGTCCTAA) | 1.04 |
| CTACGTCCTTGGGTTCTAACCTGTTGCTT (site CTACGTCCTCA) | 0.14 |
| CTACGTCCTTGGGTTCTAACCTGTTGCTT (site CTACGTCCTGA) | 0.297 |
| CTACGTCCTTGGGTTCTAACCTGTTGCTT (site CTACGTCCTTA) | 0.0433 |
| CTACGTTCTTGGGTTCTAACCTGTTGCCT (site CCACGTTCTAG) | 0.761 |
| CTACGTTCTTGGGTTCTAACCTGTTGCCT (site CTACGTTCTAG) | 1.05 |
| CTACTAACTTGGGTTCTAACCTGTTGCAT (site CTACTAACTAA) | 0.173 |
| CTACTAACTTGGGTTCTAACCTGTTGCAT (site CTACTAACTAC) | 0.149 |
| CTACTAACTTGGGTTCTAACCTGTTGCAT (site CTACTAACTAG) | 0.268 |
| CTACTAACTTGGGTTCTAACCTGTTGCAT (site CTACTAACTAT) | 1.34 |
| CTACTAACTTGGGTTCTAACCTGTTGCTT (site CTACTAACTAA) | 0.316 |
| CTACTAACTTGGGTTCTAACCTGTTGCTT (site CTACTAACTAC) | 0.0509 |
| CTACTAACTTGGGTTCTAACCTGTTGCTT (site CTACTAACTAG) | 0.0714 |
| CTACTAACTTGGGTTCTAACCTGTTGCTT (site CTACTAACTAT) | 0.0517 |
| CTACTAGCTTGGGTTCTAACCTGTTGCAA (site CTACTAGCTAT) | 0.196 |
| CTACTAGCTTGGGTTCTAACCTGTTGCAA (site CTACTAGCTCT) | 0.617 |
| CTACTAGCTTGGGTTCTAACCTGTTGCAA (site CTACTAGCTGT) | 0.0288 |
| CTACTAGCTTGGGTTCTAACCTGTTGCAA (site CTACTAGCTTT) | 1.25 |

| Sequence | recombinant barcode read abundance (log10) |
| --- | --- |
| CTAGACACTTGGGTTCTAACCTGTTGCGG (site CTAGACACTCC) | 2.14 |
| CTAGACACTTGGGTTCTAACCTGTTGCGG (site CTGGTCACTCC) | 0.0881 |
| CTAGACCCTTGGGTTCTAACCTGTTGCCT (site ATAGACCCTAG) | 0.347 |
| CTAGACCCTTGGGTTCTAACCTGTTGCCT (site CTAGACCCTAG) | 1.95 |
| CTAGACCCTTGGGTTCTAACCTGTTGCCT (site GTAGACCCTAG) | 0.223 |
| CTAGACCCTTGGGTTCTAACCTGTTGCCT (site TTAGACCCTAG) | 0.0677 |
| CTAGACTCTTGGGTTCTAACCTGTTGCTG (site CTAGACTCTAA) | 0.136 |
| CTAGACTCTTGGGTTCTAACCTGTTGCTG (site CTAGACTCTCA) | 2.73 |
| CTAGACTCTTGGGTTCTAACCTGTTGCTG (site CTAGACTCTGA) | 0.076 |
| CTAGACTCTTGGGTTCTAACCTGTTGCTG (site CTAGACTCTTA) | 0.188 |
| CTAGCCTCTTGGGTTCTAACCTGTTGCAT (site CTAACCTCTAT) | 0.739 |
| CTAGCCTCTTGGGTTCTAACCTGTTGCAT (site CTACCCTCTAT) | 0.582 |
| CTAGCCTCTTGGGTTCTAACCTGTTGCAT (site CTAGCCTCTAT) | 2.38 |
| CTAGCCTCTTGGGTTCTAACCTGTTGCAT (site CTATCCTCTAT) | 0.0542 |
| CTAGCGACTTGGGTTCTAACCTGTTGCTG (site CTAGCCACTTA) | 0 |
| CTAGCGACTTGGGTTCTAACCTGTTGCTG (site CTAGCGACTCA) | 0.287 |
| CTAGGAGCTTGGGTTCTAACCTGTTGCGT (site CTAGAAGCTAC) | 1.84 |
| CTAGGAGCTTGGGTTCTAACCTGTTGCGT (site CTAGGAGCTAC) | 2.12 |
| CTAGGATCTTGGGTTCTAACCTGTTGCGT (site CTAGGATCTAC) | 2.77 |
| CTAGGATCTTGGGTTCTAACCTGTTGCGT (site CTAGTCTCTAC) | 0.152 |
| CTAGGCCCTTGGGTTCTAACCTGTTGCAT (site CTAGGCCCTAA) | 0.379 |
| CTAGGCCCTTGGGTTCTAACCTGTTGCAT (site CTAGGCCCTAC) | 1.97 |

| Sequence | recombinant barcode read abundance (log10) |
| --- | --- |
| CTAGGCCCTTGGGTTCTAACCTGTTGCAT (site CTAGGCCCTAG) | 0.318 |
| CTAGGCCCTTGGGTTCTAACCTGTTGCAT (site CTAGGCCCTAT) | 2.77 |
| CTAGTAGCTTGGGTTCTAACCTGTTGCTC (site CTAGTAGCTGA) | 1.74 |
| CTAGTAGCTTGGGTTCTAACCTGTTGCTC (site GTAGCAGCTGA) | 0.331 |
| CTAGTCACTTGGGTTCTAACCTGTTGCAC (site CTAGTCACTGT) | 2.81 |
| CTAGTCACTTGGGTTCTAACCTGTTGCAC (site CTAGTGTCTGT) | 0.0438 |
| CTAGTTGCTTGGGTTCTAACCTGTTGCAA (site CTAATTGCTTT) | 0.0799 |
| CTAGTTGCTTGGGTTCTAACCTGTTGCAA (site CTACTTGCTTT) | 0.229 |
| CTAGTTGCTTGGGTTCTAACCTGTTGCAA (site CTAGTTGCTTT) | 0.328 |
| CTAGTTGCTTGGGTTCTAACCTGTTGCAA (site CTATTTGCTTT) | 0.0786 |
| CTATAGACTTGGGTTCTAACCTGTTGCCA (site CTATAGACTTG) | 0.079 |
| CTATAGACTTGGGTTCTAACCTGTTGCCA (site CTCTAGACTAG) | 0.206 |
| CTATCGACTTGGGTTCTAACCTGTTGCCT (site CTATAGACTAG) | 0.0416 |
| CTATCGACTTGGGTTCTAACCTGTTGCCT (site CTATCGACTAG) | 0.766 |
| CTATCGACTTGGGTTCTAACCTGTTGCCT (site CTATGGACTAG) | 0.163 |
| CTATCGACTTGGGTTCTAACCTGTTGCCT (site CTATTGACTAG) | 0.0575 |
| CTATCGTCTTGGGTTCTAACCTGTTGCCT (site ATATCGTCTAG) | 0.0956 |
| CTATCGTCTTGGGTTCTAACCTGTTGCCT (site CTATCGTCTAG) | 1.22 |
| CTATGCCCTTGGGTTCTAACCTGTTGCTA (site CTATGCCCTTA) | 1.16 |
| CTATGCCCTTGGGTTCTAACCTGTTGCTA (site CTATGCCCTTC) | 0.179 |
| CTATGGACTTGGGTTCTAACCTGTTGCAC (site CTATGGACTAT) | 0.132 |
| CTATGGACTTGGGTTCTAACCTGTTGCAC (site CTATGGACTCT) | 0.242 |
